ChEMBL document CHEMBL1201862, “PubChem BioAssay data set” (2004)
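Each compound was tested at five concentrations against cells in 96-well plates for 48 hours. GI50 is the concentration that inhibits growth by half.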 Active and inactive are the calls of the source. No stated cut-off is given here; in the data, active = GI50 up to about 1.1 µM and inactive = higher.

Legend:
Experiment in all cases: NCI tumour cell line growth inhibition, 48 h
NCI/ADR-RES = system: NCI/ADR-RES
RPMI-8226 = system: RPMI-8226
786-0 = system: 786-0
PC-3 = system: PC-3
SF-539 = system: SF-539
COLO 205 = system: COLO 205
ACHN = system: ACHN
M14 = system: M14
HOP-62 = system: HOP-62
HOP-92 = system: HOP-92
CCRF-CEM = system: CCRF-CEM
MDA-MB-231 = system: MDA-MB-231
HT-29 = system: HT-29
BT-549 = system: BT-549
UACC-257 = system: UACC-257
OVCAR-5 = system: OVCAR-5
SK-MEL-2 = system: SK-MEL-2
NCI-H522 = system: NCI-H522
Hs-578T = system: Hs-578T
K562 = system: K562
HCT-15 = system: HCT-15
RXF 393 = system: RXF 393
SW-620 = system: SW-620
U-251 = system: U-251
SR = system: SR
MOLT-4 = system: MOLT-4
UACC-62 = system: UACC-62
HCT-116 = system: HCT-116
TK-10 = system: TK-10
NCI-H226 = system: NCI-H226
KM12 = system: KM12
Malme-3M = system: Malme-3M
OVCAR-8 = system: OVCAR-8
A498 = system: A498
CAKI-1 = system: CAKI-1
NCI-H460 = system: NCI-H460
OVCAR-4 = system: OVCAR-4
MCF7 = system: MCF7
SNB-19 = system: SNB-19
A549 = system: A549
EKVX = system: EKVX
SF-268 = system: SF-268
NCI-H23 = system: NCI-H23
SK-MEL-5 = system: SK-MEL-5
SNB-75 = system: SNB-75
SK-OV-3 = system: SK-OV-3
UO-31 = system: UO-31
SF-295 = system: SF-295
IGROV-1 = system: IGROV-1
OVCAR-3 = system: OVCAR-3
MDA-MB-435 = system: MDA-MB-435
LOX IMVI = system: LOX IMVI
MDA-N = system: MDA-N
T47D = system: T47D
DU-145 = system: DU-145
HL-60 = system: HL-60
SN12C = system: SN12C
HCC 2998 = system: HCC 2998
SK-MEL-28 = system: SK-MEL-28

Measured: GI50

CC1=Nc2nc3ccccc3n2C(C)(C)C1
inactive: NCI/ADR-RES > 100 µM | RPMI-8226 > 100 µM | 786-0 > 100 µM | PC-3 > 100 µM | SF-539 > 100 µM | COLO 205 > 100 µM | ACHN > 100 µM | M14 > 100 µM | HOP-62 > 100 µM | HOP-92 > 100 µM | CCRF-CEM > 100 µM | MDA-MB-231 > 100 µM | HT-29 > 100 µM | BT-549 > 100 µM | UACC-257 > 100 µM | OVCAR-5 > 100 µM | SK-MEL-2 > 100 µM | NCI-H522 > 100 µM | Hs-578T > 100 µM | K562 > 100 µM | RXF 393 > 100 µM | SW-620 > 100 µM | U-251 > 100 µM | SR > 100 µM | MOLT-4 > 100 µM | UACC-62 > 100 µM | HCT-116 > 100 µM | TK-10 > 100 µM | NCI-H226 > 100 µM | KM12 > 100 µM | Malme-3M 4.54 µM | OVCAR-8 > 100 µM | A498 > 100 µM | CAKI-1 > 100 µM | NCI-H460 > 100 µM | OVCAR-4 > 100 µM | MCF7 > 100 µM | SNB-19 > 100 µM | A549 > 100 µM | EKVX > 100 µM | SF-268 > 100 µM | NCI-H23 > 100 µM | SK-MEL-5 > 100 µM | SNB-75 > 100 µM | SK-OV-3 > 100 µM | UO-31 > 100 µM | SF-295 > 100 µM | IGROV-1 > 100 µM | OVCAR-3 > 100 µM | MDA-MB-435 > 100 µM | LOX IMVI > 100 µM | MDA-N > 100 µM | T47D > 100 µM
> 100 µM: HCT-15

COc1cccc(C2SCC(=O)N2c2ccc(-n3c(-c4ccccc4)nc4ccccc4c3=O)cc2)c1OC (configuration not stated)
inactive: NCI/ADR-RES > 100 µM | RPMI-8226 > 100 µM | 786-0 > 100 µM | PC-3 > 100 µM | SF-539 > 100 µM | COLO 205 > 100 µM | ACHN > 100 µM | M14 > 100 µM | HOP-62 > 100 µM | DU-145 > 100 µM | HOP-92 > 100 µM | CCRF-CEM > 100 µM | HL-60 > 100 µM | MDA-MB-231 > 100 µM | HT-29 > 100 µM | BT-549 > 100 µM | UACC-257 > 100 µM | OVCAR-5 > 100 µM | SK-MEL-2 > 100 µM | NCI-H522 > 100 µM | Hs-578T > 100 µM | K562 > 100 µM | RXF 393 > 100 µM | SW-620 > 100 µM | U-251 > 100 µM | SR > 100 µM | MOLT-4 > 100 µM | UACC-62 > 38.5 µM | HCT-116 > 100 µM | TK-10 > 100 µM | NCI-H226 > 87.9 µM | KM12 > 100 µM | Malme-3M > 100 µM | OVCAR-8 > 100 µM | A498 > 100 µM | CAKI-1 > 100 µM | NCI-H460 > 100 µM | SN12C > 100 µM | OVCAR-4 > 100 µM | SNB-19 > 100 µM | A549 > 100 µM | EKVX > 100 µM | SF-268 > 100 µM | NCI-H23 > 100 µM | SK-MEL-5 > 100 µM | SNB-75 > 60.5 µM | HCC 2998 > 100 µM | SK-OV-3 > 100 µM | SK-MEL-28 > 100 µM | UO-31 > 43.7 µM | SF-295 > 100 µM | IGROV-1 > 100 µM | OVCAR-3 > 88.7 µM | MDA-MB-435 > 100 µM | LOX IMVI > 100 µM | MDA-N > 100 µM | T47D 31.6 µM
> 100 µM: HCT-15
